Assay results reported in patent US12180146B2, “Antihypertensive polyol compound and derivative thereof” (TAO PHARMACEUTICAL (SUZHOU) CO., LTD, priority 2020, dated 2024).

Legend:
[1] = system: hypoxic pulmonary hypertension model rats; assay: Hypoxic pulmonary hypertension model rats, oral (gavage) treatment for 28 days; type: in vivo, SD rats; settings: hypoxic PAH rats, po
[2] = system: spontaneously hypertensive rats (SHR); assay: Antihypertensive activity test: blood pressure and heart rate of spontaneously hypertensive rats (SHR); type: in vivo, rat; settings: 200 mg/kg
How it was run: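 Spontaneously hypertensive rats received compound at 200 mg/kg. SBP and heart rate were measured before and after dosing. A drop in SBP of ≥20 mmHg from baseline counted as effective, and heart-rate changes were tested by paired t-test (P<0.05).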

[3] = after administration (6 h M ± SD), n = 8
[4] = before administration, M ± SD, n = 8

CCc1cccc(C(O)CO)c1 (stereo not shown) [Compound 1, 1-(3-ethylphenyl)-1,2-ethylene glycol]
RVSP ([1]; 10 mg/kg): 70.28 ± 4.64 mmHg
mPAP ([1]; 10 mg/kg): 25.26 ± 3.46 mmHg
RVHI ([1]; 10 mg/kg, RV/(LV+S)): 0.467 ± 0.030
2 × MT/ED ([1]; 10 mg/kg, medium thickness ratio of small pulmonary arteries): 0.361 ± 0.020
2 × MT/ED ([1]; 25 mg/kg): 0.323 ± 0.022
RVHI ([1]; 25 mg/kg): 0.472 ± 0.026
RVSP ([1]; 25 mg/kg): 71.34 ± 2.12 mmHg
mPAP ([1]; 25 mg/kg): 22.36 ± 1.78 mmHg
2 × MT/ED ([1]; 50 mg/kg): 0.304 ± 0.021
RVHI ([1]; 50 mg/kg): 0.456 ± 0.019
RVSP ([1]; 50 mg/kg): 67.46 ± 4.28 mmHg
mPAP ([1]; 50 mg/kg): 21.66 ± 3.28 mmHg
2 × MT/ED ([1]; 100 mg/kg): 0.266 ± 0.014
RVHI ([1]; 100 mg/kg): 0.301 ± 0.017
RVSP ([1]; 100 mg/kg): 59.12 ± 2.12 mmHg
mPAP ([1]; 100 mg/kg): 15.89 ± 1.12 mmHg
2 × MT/ED ([1]; 200 mg/kg): 0.241 ± 0.011
RVHI ([1]; 200 mg/kg): 0.254 ± 0.022
RVSP ([1]; 200 mg/kg): 54.38 ± 2.98 mmHg
mPAP ([1]; 200 mg/kg): 15.21 ± 1.92 mmHg
time after administration of maximum antihypertensive effects [2]: 3 h
SHR heart rate, time after administration 0 h ([2]; 0 h, N = 8): 356 ± 46.4 beat/min
Heart rate Difference before and after administration, 1 h ([2]; 1 h): −9 beat/min
SBP Difference before and after administration, 1 h ([2]; 1 h): 16 mmHg
SHR heart rate, time after administration 1 h ([2]; 1 h, N = 8): 348 ± 39.3 beat/min
SHR blood pressure (SBP), time after administration 1 h ([2]; 1 h, n = 8): 176 ± 9.55 mmHg
Heart rate Difference before and after administration, 2 h ([2]; 2 h): 23 beat/min
SBP Difference before and after administration, 2 h ([2]; 2 h): 20 mmHg
SHR heart rate, time after administration 2 h ([2]; 2 h, N = 8): 380 ± 34.1 beat/min
SHR blood pressure (SBP), time after administration 2 h ([2]; 2 h, n = 8): 172 ± 7.36 mmHg
Heart rate Difference before and after administration, 3 h ([2]; 3 h): 28 beat/min
SBP Difference before and after administration, 3 h ([2]; 3 h): 23 mmHg
SHR heart rate, time after administration 3 h ([2]; 3 h, N = 8): 385 ± 31.5 beat/min
SHR blood pressure (SBP), time after administration 3 h ([2]; 3 h, n = 8): 169 ± 4.07 mmHg
Heart rate Difference before and after administration, 4 h ([2]; 4 h): 28 beat/min
SBP Difference before and after administration, 4 h ([2]; 4 h): 19 mmHg
SHR heart rate, time after administration 4 h ([2]; 4 h, N = 8): 385 ± 30.4 beat/min
SHR blood pressure (SBP), time after administration 4 h ([2]; 4 h, n = 8): 173 ± 7.15 mmHg
Heart rate Difference before and after administration, 5 h ([2]; 5 h): 16 beat/min
SBP Difference before and after administration, 5 h ([2]; 5 h): 17 mmHg
SHR heart rate, time after administration 5 h ([2]; 5 h, N = 8): 372 ± 28.5 beat/min
SHR blood pressure (SBP), time after administration 5 h ([2]; 5 h, n = 8): 175 ± 5.61 mmHg
Heart rate Difference before and after administration, 6 h ([2]; 6 h): 17 beat/min
SBP Difference before and after administration, 6 h ([2]; 6 h): 11 mmHg
SHR heart rate, time after administration 6 h ([2]; 6 h, N = 8): 373 ± 31.3 beat/min
SHR blood pressure (SBP), time after administration 6 h ([2]; 6 h, n = 8): 180 ± 6.66 mmHg
Blood pressure (SBP, mmHg) After administration [2, 3]: 174 ± 4.01 mmHg
Heart rate (beat/min) After administration [2, 3]: 368 ± 25.5 beat/min
Heart rate Difference (beat/min) ([2]; after administration minus baseline (6 h)): 12 beat/min
Blood pressure Difference mmHg ([2]; baseline minus after administration (6 h)): 18 mmHg
Blood pressure (SBP, mmHg) Baseline [2, 4]: 192 ± 7.98 mmHg
Heart rate (beat/min) Baseline [2, 4]: 356 ± 46.4 beat/min
